In one test the test system is male Lewis rats. The experiment in a line: Monoiodoacetate (MIA) model, incapacitance testing. It counts as in vivo. Particulars: dosed once, rat MIA model. The procedure: Monoiodoacetate (MIA) Model
For all studies male Lewis rats of approximately 8 weeks of age at the time of MIA injection are used to measure pain in the MIA model. The rats are housed in groups of 2 or 3 per cage and maintained in a constant temperature and on a 12 hour light/12 hour dark cycle. Animals have free access to food and water at all times except during data collection.
In the standard MIA model the right knees of each rat are injected with 0.3 mg MIA in 50 ul of saline and the left knees with 50 ul of saline. Pain is measured at varying times after MIA injection (not normally before 10 day post MIA injection) using incapacitance testing. This measures the difference in hind paw weight bearing between the MIA and saline injected knees, and each measurement is the average of 3 separate measurements each measured over 1 second.
For studies with CB2 agonists rats are randomized into dose groups (n=5 or 6) and then dosed once with the compound under investigation. Dosing is staggered by 15 minutes for each rat and at a predetermined time post-dose (usually 2 hours), pain measured using incapacitance testing. Studies are routinely run with 4 groups, vehicle (1% carboxy methyl cellulose in water plus 0.25% polysorbate 80) and 3 compound groups which can be either single compounds at a single dose or the same compound at 3 doses. Results are reported as the difference in weight bearing between saline and MIA injected knees and statistical comparisons are made between vehicle treated and compound treated animals to assess the effect of compounds on knee pain in the model.

Test [1] deals with Male Harlan Sprague-Dawley rats. The experiment in a line: Animal model of dural plasma protein extravasation (PPE). Conditions: 10 mg/kg, 2 hours post po dose, rat; saline controls approximately 2.0, full prevention approximately 1.0. It counts as in vivo.
A further test has as its target T1, human CB2 receptor (Homo sapiens, UniProt P34972).
T1 construct: expressed in transfected cells
The experiment in a line: Displacement of 3H-CP55940 from human CB2 receptors. Particulars: displacement of 3H-CP55940, human CB2 membrane homogenates. Type of test: binding. As to the method:
(§1) Displacement of 3H-CP55940 from Human and Rat CB2 Receptors
(§2) The methods of Felder et al. (Mol. Pharmaocol. 48:443-450, 1995) were utilized with minor modifications. Specifically, membrane homogenates from cells stably or transiently expressing the human or rat CB2 receptor were washed by centrifugation and diluted into a 50 mM Tris HCl (pH 7.4), 5 mM MgCl2, 2.5 mM EDTA, and 0.1% BSA buffer. Specific binding of 3H-CP55940 was defined with 1 μM CP55940. The ability of compounds to displace specific 3H-CP55940 binding was tested over a range of concentrations in the Tris, MgCl2, EDTA, BSA buffer in the presence of 1% dimethyl sulfoxide by incubating at room temperature for 90 minutes in a volume of 300 μl. Unifilter 96-well microplates pretreated with 0.5% polyvinylpyrrolidone, 0.1% polysorbate 20 in water were washed three times with cold Tris buffer. The reaction mixture was then transferred to the filter plate immediately before terminating the incubation by rapid filtration and three 200 μl washes with cold Tris buffer. After the filter plates dried, microscint 20 was added to each well, the plate sealed and counted for determination of disintegrations per minute. The displacement curves were graphed and the resulting Ki values determined utilizing Graphpad Prism.
A general note: Displacement assays read how much labelled ligand stays bound in the presence of the test substance.

The target in a further test is T2, rat CB2 receptor (Rattus norvegicus, UniProt Q9QZN9).
T2 construct: expressed in transfected cells
T2 sequence (Q9QZN9 1-360): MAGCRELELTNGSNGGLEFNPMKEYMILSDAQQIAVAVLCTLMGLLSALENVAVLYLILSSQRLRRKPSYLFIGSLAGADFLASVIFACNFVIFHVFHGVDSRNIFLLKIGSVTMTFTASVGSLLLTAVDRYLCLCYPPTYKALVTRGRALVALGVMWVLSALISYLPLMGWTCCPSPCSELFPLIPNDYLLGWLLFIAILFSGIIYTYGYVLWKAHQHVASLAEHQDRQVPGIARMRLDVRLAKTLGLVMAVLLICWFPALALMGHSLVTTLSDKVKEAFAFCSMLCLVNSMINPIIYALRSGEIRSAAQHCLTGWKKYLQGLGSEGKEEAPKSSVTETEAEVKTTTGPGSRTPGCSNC
The experiment in a line: Displacement of 3H-CP55940 from rat CB2 receptors. It counts as binding. Particulars: displacement of 3H-CP55940, rat CB2 membrane homogenates. The procedure:
as §1, §2

In a further test the target is T3, hCB2-Sf9 membranes (Homo sapiens, UniProt P34972).
T3 construct: expressed in transfected cells; host or cells: Sf9 insect cells
T3 sequence (P34972 whole entry): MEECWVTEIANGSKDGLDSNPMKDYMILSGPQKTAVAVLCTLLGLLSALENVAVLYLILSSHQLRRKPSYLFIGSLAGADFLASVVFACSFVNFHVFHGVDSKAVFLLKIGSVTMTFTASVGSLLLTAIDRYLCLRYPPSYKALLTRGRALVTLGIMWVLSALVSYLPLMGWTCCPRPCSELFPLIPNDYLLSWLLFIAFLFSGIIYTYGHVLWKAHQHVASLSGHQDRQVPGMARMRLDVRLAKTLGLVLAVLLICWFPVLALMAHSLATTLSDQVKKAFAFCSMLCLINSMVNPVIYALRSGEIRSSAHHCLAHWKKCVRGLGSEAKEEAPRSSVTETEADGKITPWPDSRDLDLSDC
The experiment in a line: CB2 in vitro functional assay, SPA based GTP-γ-35S binding, agonist mode (antibody capture). It counts as biochemical. Conditions: normalized to methanandamide, read-out: relative EC50 value for CB2. As to the method: (§3) CB1 and CB2 In Vitro Functional Assays
(§4) Exemplified compounds are tested in agonist mode using a SPA based GTP-γ-^35S binding assay. All assay components are prepared in assay buffer made up of 20 mM HEPES, 100 mM NaCl, 5 mM MgCl2, (pH 7.4 at room temperature). Semi-log compound dilutions are done in assay buffer containing BSA (final 0.125%). GTP-γ^35-S binding is measured in a 96 well format using a whole membrane capture technique for the CB1 assay and modifications of an antibody capture technique previously described (DeLapp et al. J Pharmacol Exp Ther 289:946-955, 1999) for the CB2 assay. All incubations are done at room temperature.
hCB2-Sf9 membranes and GDP (1 uM final) are added to assay buffer and homogenized. Diluted compounds and membranes are added to the assay plate and pre-incubated for 15 minutes. This is followed by addition of GTP-γ-^35S ([…] final) and another 35 minute incubation. Next a mixture containing Nonidet P40 detergent (0.2% final), anti-Gi antibody (final dilution of 1:362), and 1.25 mg anti-rabbit antibody scintillation proximity assay beads are added. The plates are then sealed, vortexed, and incubated for an additional 2 hours before centrifuging and counting as for CB1.
To analyze data, first subtract background from all wells. […]

For another test, the target named is T4, hCB1-CHO membranes (Homo sapiens, UniProt P21554).
T4 construct: expressed in transfected cells; host or cells: CHO cells
T4 sequence (P21554 whole entry): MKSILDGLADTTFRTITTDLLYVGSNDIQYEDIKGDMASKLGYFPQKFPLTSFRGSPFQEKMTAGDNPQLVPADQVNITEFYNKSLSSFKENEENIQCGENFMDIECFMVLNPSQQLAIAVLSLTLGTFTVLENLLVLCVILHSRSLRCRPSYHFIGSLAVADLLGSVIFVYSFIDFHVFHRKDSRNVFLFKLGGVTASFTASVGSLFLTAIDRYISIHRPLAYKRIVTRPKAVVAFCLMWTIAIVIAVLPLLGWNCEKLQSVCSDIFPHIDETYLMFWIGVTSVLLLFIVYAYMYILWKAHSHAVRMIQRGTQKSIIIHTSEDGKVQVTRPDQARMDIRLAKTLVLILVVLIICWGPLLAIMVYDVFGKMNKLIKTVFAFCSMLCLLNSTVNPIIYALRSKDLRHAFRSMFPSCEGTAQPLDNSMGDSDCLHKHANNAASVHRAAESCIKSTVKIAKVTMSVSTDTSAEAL
The experiment in a line: CB1 in vitro functional assay, SPA based GTP-γ-35S binding, agonist mode (whole membrane capture). Type of test: biochemical. Particulars: normalized to methanandamide, read-out: relative EC50 value for CB1. The procedure: as §3, §4
hCB1-CHO membranes, GDP (1 uM final), and saponin (10 ug/mL final) are added to assay buffer and homogenized. Diluted compounds, GTP-γ-^35S (500 nM final) and membranes are added to the assay plate and incubated for 30 minutes. Then 1 mg/well Wheatgerm Agglutinin SPA bead is added, and the plates are sealed, vortexed, and incubated for an additional hour. Plates are then centrifuged at 700×g for 10 minutes and counted for 1 minute per well using a scintillation counter.
To analyze data, first subtract background from all wells. Determine percent agonist efficacy by normalizing agonist/inverse agonist dose response data to a full agonist (methanandamide) response. Analyze the data using a 4-parameter logistic reduced fit with Activity Base and XLFit3.
Background: Binding of GTPγS marks nucleotide exchange on a G protein.

Each structure is given as a SMILES string. Counter-ions that a name gives are not always drawn.

T1 sequence (P34972 whole entry): as the sequence (P34972 whole entry) above

In the case of `CC(=O)NCCn1c(-c2ccccc2Cl)nc2c(N3CCN(CCF)CC3)nc(C)nc21.Cl` [Example 17, N-[2-[8-(2-chlorophenyl)-6-[4-(2-fluoroethyl)piperazin-1-yl]-2-methyl-purin-9-yl]ethyl]acetamide hydrochloride], the “pain versus vehicle (difference in hind paw weight bearing)” value in the test on male Lewis rats (dose 0.1 mg/kg), in the test with male Lewis rats (dose 0.3 mg/kg) and in the test with male Lewis rats (dose 1 mg/kg) was “reduce pain versus vehicle” each time.
`Cc1nc(N2CCN(C)CC2)c2nc(-c3ccccc3Cl)n(CCS(C)(=O)=O)c2n1.Cl` [Example 1, 8-(2-Chlorophenyl)-6-(4-methylpiperazin-1-yl)-2-methyl-9-(2-methylsulfonylethyl)purine hydrochloride]: the “pain versus vehicle (difference in hind paw weight bearing)” value with male Lewis rats (dose 0.3 mg/kg) and in the test with male Lewis rats (dose 1 mg/kg) was “reduce pain versus vehicle” throughout. Further, the “extravasation ratio (stimulated side over unstimulated side of dura)” value in test [1] is 1.12.
As for `CCN1CCN(c2nc(C)nc3c2nc(-c2ccccc2Cl)n3CCNC(C)=O)CC1.Cl` [Example 7, N-[2-[8-(2-Chlorophenyl)-6-(4-ethylpiperazin-1-yl)-2-methyl-purin-9-yl]ethyl]acetamide hydrochloride], the “extravasation ratio (stimulated side over unstimulated side of dura)” value in test [1] worked out at 1.18.
By Ki is commonly meant a dissociation constant, usually derived from enzyme kinetics or from competition with a known ligand. In the case of `Cc1nc(N2CCN(C)CC2)c2nc(-c3ccccc3Cl)n(CC#N)c2n1` [Example 3, 2-[8-(2-Chlorophenyl)-2-methyl-6-(4-methylpiperazin-1-yl)purin-9-yl]acetonitrile hydrochloride], the results for the Ki on human CB2 receptor and on rat CB2 receptor were 0.0278 µM and 0.0126 µM, respectively.
One may read the EC50 as the midpoint of the concentration-response curve. Consider `CCN1CCN(c2nc(C)nc3c2nc(-c2ccccc2Cl)n3CCS(C)(=O)=O)CC1` [Example 2, 8-(2-Chlorophenyl)-6-(4-ethylpiperazin-1-yl)-2-methyl-9-(2-methylsulfonylethyl)purine hydrochloride], for which the half-maximal effective concentration (EC50) stood at 0.0172 µM at hCB2-Sf9 membranes and 5.56 µM on hCB1-CHO membranes. Further, the Ki on human CB2 receptor was 0.0284 µM; at rat CB2 receptor, 0.0487 µM.
Take `COC(=O)NCCn1c(-c2ccccc2Cl)nc2c(N3CCN(CCF)CC3)nc(C)nc21` [Example 16, Methyl N-[2-[8-(2-chlorophenyl)-6-[4-(2-fluoroethyl)piperazin-1-yl]-2-methyl-purin-9-yl]ethyl]carbamate hydrochloride]: the results for the concentration giving a half-maximal response (EC50) on hCB2-Sf9 membranes and on hCB1-CHO membranes were 0.0135 µM and over 100 µM, respectively.

The values above are taken from patent US8710063B2, “Purine compounds used as CB2 agonists” (priority 2010, dated 2014).
